Where “and” joins values, the source holds several entries; their conditions need not be identical. Identical values can stand only once.
Assays:
[1] = Quantum yield of singlet oxygen production, comparative method with DPBF scavenger; type: physicochemical; conditions: in DMF, ZnPc as reference
Experimental: Eight μL of the 100 μM stock solution of the dye in DMF (or DMF + water or water; see above) was added. A xenon lamp (100 W, ozone free XE DC short arc lamp, New port) was used to irradiate the sample while stirring. The incident light was filtered through a water filter (6 cm) and cut off filter OG530 eliminating heat and light under 523 nm, respectively. […] The decrease of DPBF in solution with irradiation time was monitored at 415 nm. The values of ΦΔ of the dyes were calculated by the following equation: φΔS=φΔ[…] is the slope of the plot of the dependence of ln([…] 0 and A t being the absorbances of the DPBF at 415 nm before irradiation and after irradiation time t, respectively. I aT is the total amount of light absorbed by the dye sample. Superscripts R and S indicate the reference and sample, respectively. I aT is calculated as a sum of intensities of the absorbed light I a at wavelengths from 523 to 850 nm (step 0.5 nm). Light under 523 nm is completely filtered by an OG530 filter, and light above 850 nm is not absorbed by the studied dye sample. I a at a given wavelength is calculated using Beer-Lambert'[…]) where I 0 is transmittance of the filter at the given wavelength and A is the absorbance of the dye at this wavelength. All experiments were performed three times, and the data presented is the mean value of the three obtained results with estimated error ± 10%.

[2] = Fluorescence quantum yield, comparative method; type: physicochemical; conditions: in DMF; ZnPc as reference
Experimental: The fluorescence quantum yields (ΦF) were determined by a comparative method with ZnPc as the reference (ΦF = 0.32 in THF). The ΦF values were calculated using the following formula: ϕFS=ϕFR(F^S/F^R)(1−10^−A^R/1−10^−A^S)(η^S/η^R)^2 where F is the integrated area under the emission spectrum and A is the absorbance at the excitation wavelength. Superscripts R and S indicate the reference and sample, respectively. η stands for the refractive index of the solvent. Absorption in the Q-band was kept below 0.05 to eliminate the inner filter effect. Excitation wavelengths were the same as those used for emission spectra (see above). The emission wavelengths were set to their emission maxima to avoid exceeding the detector limit with stimated error ± 15%.

[3] = system: SK-MEL-28 (human skin melanoma); experiment: Photodynamic activity (phototoxicity, neutral red uptake) on SK-MEL-28; type: cell-based; conditions: 12 h incubation, Xe-lamp 15 min, λ > 570 nm, 11.2 J/cm^2; mean ± SD; t.w. = this work
Experimental: (§1) Detailed in vitro studies involving subcellular localization and determination of the EC50 in three different cell lines (human cervical carcinoma–HeLa, human breast adenocarcinoma–MCF-7, and human skin melanoma–SK-MEL-28) were performed. A broadband light source (ozone-free 450 W Xe-lamp, Newport) equipped with the long-pass filter Schott OG570 was used (12.4 mW/cm^2, 15 min, 11.2 J/cm^2).
(§2) For the cytotoxicity experiments (phototoxicity), cells were seeded at 100 μL per well into 96-well plates (TPP, Switzerland) at a density of 7.5 × 10^3 (HeLa) or 1.0 × 10^4 (MCF-7 and SK-MEL-28) cells per well. Cells were left to grow for 24 h (until they reached confluency) in a controlled environment of a CO2 incubator (37 °C, 5% CO2 atmosphere, constant high humidity). Subsequently, studied compounds were added in a wide concentration range and incubated with the cells for 12 h. Cells were washed; fresh cell culture medium was added, and the cells were irradiated using a 450 W Xe lamp (Newport, USA). The lamp was equipped with a long pass filter (Newport OG570) and an 8 cm water filter (λ > 570 nm, 12.4 mW/cm^2, 15 min, 11.2 J/cm^2). Cellular viability was assessed after an additional 24 h by the neutral red (NR; Sigma, Merck, USA) uptake assay. At least three independent experiments, each in triplicate, were performed. The soluble NR was measured at λ = 540 nm using a Tecan Infinite 200 M plate reader (Tecan, Austria). The viability of each experimental group was expressed as the percentage of the untreated cells (100% viability) after subtraction of the signal from cells treated with a lethal dose of hydrogen peroxide (0% viability). […] EC50 values were calculated, and graphs were created by using GraphPad Prism 10.3.1 (Graph Pad software, USA).

[4] = Log P, partition between n-octanol and PBS; type: physicochemical; conditions: partition coefficient between 1-octanol and PBS
Experimental: 400 μL portion of n-octanol and 400 μL of PBS buffer were mixed in a plastic Eppendorf vial. Then, 20 μL of the 100 μM stock solution of the sample (see above) was added to this mixture, vortexed for 5 min at rt, and then centrifuged for 10 min (10 000 rpm, rt). 50 μL of each of these layers was taken into 2.5 mL of DMF in a quartz cuvette, and their emission spectra (excitation wavelengths in Table ) were recorded. The log P value was then computed using the area under the curve of the emission spectra of n-octanol (F oct) and PBS buffer (F PBS) layers as follows: logP=log(Foct/FPBS) Triplicate measurements were performed, and the data reported are the mean of the obtained results.

[5] = system: MCF-7 (human breast adenocarcinoma); experiment: Photodynamic activity (phototoxicity, neutral red uptake) on MCF-7; type: cell-based; conditions: 12 h incubation, Xe-lamp 15 min, λ > 570 nm, 11.2 J/cm^2; mean ± SD; t.w. = this work
Experimental: as §1, §2

[6] = system: HeLa (human cervical carcinoma); experiment: Photodynamic activity (phototoxicity, neutral red uptake) on HeLa; type: cell-based; conditions: 12 h incubation, Xe-lamp 15 min, λ > 570 nm, 11.2 J/cm^2; mean ± SD; t.w. = this work
Experimental: as §1, §2

[7] = Absorption and fluorescence emission spectra in DMF; type: physicochemical; conditions: in DMF
Experimental: An absorption spectrum of 2.475 mL of solvent (water, DMF, or PBS) was taken (i.e., absorption spectrum of baseline); then, 25 μL of stock solution was added to reach the final concentration of 1 μM in the cuvette, and the absorption and emission spectra were taken. Baseline of the solvent was subtracted from the obtained absorption spectrum to get the final absorption spectrum of the sample.

[8] = Fluorescence lifetime in DMF; type: physicochemical
From the text: 1 Photophysical Data of Investigated Derivatives in DMF ^a | column: τF1/ns; τF2/ns

[9] = target: bovine serum albumin (BSA) (Bos taurus, UniProt P02769); experiment: Interaction with bovine serum albumin (absorption and emission spectra in PBS); type: binding; conditions: 1 μM Pc in PBS, BSA 17.5, 35 and 100 μM
Chain of bovine serum albumin (BSA) (P02769 25-607): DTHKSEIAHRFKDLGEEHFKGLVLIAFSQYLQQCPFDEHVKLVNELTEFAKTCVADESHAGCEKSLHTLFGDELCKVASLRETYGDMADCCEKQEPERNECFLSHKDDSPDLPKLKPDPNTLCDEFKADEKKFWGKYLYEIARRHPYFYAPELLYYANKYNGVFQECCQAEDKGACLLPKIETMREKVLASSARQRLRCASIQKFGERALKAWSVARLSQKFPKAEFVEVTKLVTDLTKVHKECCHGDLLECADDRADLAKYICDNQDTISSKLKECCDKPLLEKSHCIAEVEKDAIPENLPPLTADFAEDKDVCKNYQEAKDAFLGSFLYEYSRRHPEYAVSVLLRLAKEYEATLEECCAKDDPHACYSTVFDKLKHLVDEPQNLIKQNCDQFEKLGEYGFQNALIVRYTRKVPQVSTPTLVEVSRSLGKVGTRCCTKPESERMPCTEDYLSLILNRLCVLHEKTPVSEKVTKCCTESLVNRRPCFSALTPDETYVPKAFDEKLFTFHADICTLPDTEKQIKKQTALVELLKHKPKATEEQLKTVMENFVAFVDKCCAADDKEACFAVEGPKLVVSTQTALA

SMILES: C[n+]1cccc(Oc2ccc3c(c2)C2=NC3=Nc3c4cc(Oc5ccc[n+](C)c5)ccc4c4[n]3[Zn][n]3c(c5ccc(Oc6ccc[n+](C)c6)cc5c3=NC3=NC(=N4)c4cc(Oc5ccc[n+](C)c5)ccc43)=N2)c1.[I-].[I-].[I-].[I-] [C5Zn-I]
- ΦΔ, quantum yield of singlet oxygen production [1]: 0.49
- ΦF, fluorescence quantum yield [2]: 0.25
- EC50 [3]: 110 ± 10 nM
- Log P [4]: –2.19
- EC50 [5]: 60 ± 10 nM
- EC50 [6]: 62 ± 13 nM
- ε, extinction coefficient [7]: 130 860 M^–1cm^–1
- λA, absorption maximum in the Q-band [7]: 674 nm
- λF, fluorescence emission maximum [7]: 682 nm
- τF1, fluorescence lifetime (relative amplitude in brackets) [8]: 2.38 (97%) ns
- τF2, fluorescence lifetime (relative amplitude in brackets) [8]: 6.53 (3%) ns

SMILES: O=S(=O)([O-])c1cc(S(=O)(=O)[O-])c2cc(Oc3cccc4c3C3=NC4=Nc4c5c(Oc6ccc7cc(S(=O)(=O)[O-])cc(S(=O)(=O)[O-])c7c6)cccc5c5[n]4[Zn][n]4c(c6cccc(Oc7ccc8cc(S(=O)(=O)[O-])cc(S(=O)(=O)[O-])c8c7)c6c4=NC4=NC(=N5)c5c(Oc6ccc7cc(S(=O)(=O)[O-])cc(S(=O)(=O)[O-])c7c6)cccc54)=N3)ccc2c1.[Na+].[Na+].[Na+].[Na+].[Na+].[Na+].[Na+].[Na+] [A7Zn]
- ΦΔ, quantum yield of singlet oxygen production [1]: 0.55
- ΦF, fluorescence quantum yield [2]: 0.23
- EC50 [3]: 2120 ± 560 nM
- Log P [4]: –2.92
- EC50 [5]: 5100 ± 350 nM
- EC50 [6]: 1300 ± 400 nM
- ε, extinction coefficient [7]: 109 950 M^–1cm^–1
- λA, absorption maximum in the Q-band [7]: 696 nm
- λF, fluorescence emission maximum [7]: 707 nm
- Interaction with BSA: disaggregation/monomerization and changes in absorption and fluorescence emission spectra [9]: complete

SMILES: OCc1cc(CO)cc(OCCCCSC2=C(SCCCCOc3cc(CO)cc(CO)c3)C3=Nc4c5ccccc5c5[n]4[Mg][n]4c(c6ccccc6c4=NC4=NC(=N5)c5ccccc54)=NC2=N3)c1 [N2Mg]
- ΦΔ, quantum yield of singlet oxygen production [1]: 0.17
- ΦF, fluorescence quantum yield [2]: 0.16
- EC50 [3]: 119 ± 14 nM
- EC50 [5]: 190 ± 40 nM
- EC50 [6]: 107 ± 1 nM
- ε, extinction coefficient [7]: 15 950 M^–1cm^–1
- λA, absorption maximum in the Q-band [7]: 684 nm
- λF, fluorescence emission maximum [7]: 687 nm
- Interaction with BSA: disaggregation/monomerization and changes in absorption and fluorescence emission spectra [9]: fluorescence was slightly enhanced
- τF1, fluorescence lifetime (relative amplitude in brackets) [8]: 1.29 (25%) ns
- τF2, fluorescence lifetime (relative amplitude in brackets) [8]: 3.39 (75%) ns

SMILES: C[n+]1cccc(Oc2ccc3c(c2)C2=NC3=Nc3c4cc(Oc5ccc[n+](C)c5)ccc4c4[n]3[Zn][n]3c(c5ccc(Oc6ccc[n+](C)c6)cc5c3=NC3=NC(=N4)c4cc(Oc5ccc[n+](C)c5)ccc43)=N2)c1.F[P-](F)(F)(F)(F)F.F[P-](F)(F)(F)(F)F.F[P-](F)(F)(F)(F)F.F[P-](F)(F)(F)(F)F [C5Zn-PF 6]
- ΦΔ, quantum yield of singlet oxygen production [1]: 0.45
- ΦF, fluorescence quantum yield [2]: 0.28
- EC50 [3]: 190 ± 40 nM
- Log P [4]: –2.37
- EC50 [5]: 100 ± 20 nM
- EC50 [6]: 52 ± 26 nM
- ε, extinction coefficient [7]: 86 800 M^–1cm^–1
- λA, absorption maximum in the Q-band [7]: 674 nm
- λF, fluorescence emission maximum [7]: 682 nm
- τF1, fluorescence lifetime (relative amplitude in brackets) [8]: 2.32 (97%) ns
- τF2, fluorescence lifetime (relative amplitude in brackets) [8]: 6.31 (3%) ns

SMILES: O=S(=O)([O-])c1ccc(Oc2cccc3c2C2=Cc4c5cccc(Oc6ccc(S(=O)(=O)[O-])c7cccnc67)c5c5[n]4[Zn][n]4c(c6cccc(Oc7ccc(S(=O)(=O)[O-])c8cccnc78)c6c4=CC3=N2)=CC2=NC(=C5)c3cccc(Oc4ccc(S(=O)(=O)[O-])c5cccnc45)c32)c2ncccc12.[Na+].[Na+].[Na+].[Na+] [A8Zn]
- ΦΔ, quantum yield of singlet oxygen production [1]: 0.69
- ΦF, fluorescence quantum yield [2]: 0.26
- EC50 [3]: 1200 ± 280 nM
- Log P [4]: –3.64
- EC50 [5]: 2470 ± 810 nM
- ε, extinction coefficient [7]: 197 610 M^–1cm^–1
- λA, absorption maximum in the Q-band [7]: 696 nm
- λF, fluorescence emission maximum [7]: 708 nm
- Interaction with BSA: disaggregation/monomerization and changes in absorption and fluorescence emission spectra [9]: complete

SMILES: C[n+]1cccc(Oc2ccc3c(c2)C2=NC3=Nc3c4cc(Oc5ccc[n+](C)c5)ccc4c4[n]3[Zn][n]3c(c5ccc(Oc6ccc[n+](C)c6)cc5c3=NC3=NC(=N4)c4cc(Oc5ccc[n+](C)c5)ccc43)=N2)c1.O=S(=O)(O)O.O=S(=O)(O)O.O=S(=O)([O-])[O-].O=S(=O)([O-])[O-] [C5Zn-SO 4]
- ΦΔ, quantum yield of singlet oxygen production [1]: 0.28
- ΦF, fluorescence quantum yield [2]: 0.077 and 0.08
- EC50 [3]: 150 ± 50 nM
- Log P [4]: –3.57
- EC50 [5]: 80 ± 30 nM
- EC50 [6]: 53 ± 9 nM
- ε, extinction coefficient [7]: 82 140 M^–1cm^–1
- λA, absorption maximum in the Q-band [7]: 674 nm
- λF, fluorescence emission maximum [7]: 682 nm
- τF1, fluorescence lifetime (relative amplitude in brackets) [8]: 2.47 (94%) ns
- τF2, fluorescence lifetime (relative amplitude in brackets) [8]: 4.93 (6%) ns

SMILES: COCCOCCOCCOCCOc1ccc(OCCOCCOCCOCCOC)c2c1C1=NC2=Nc2c3ccccc3c3[n]2[Zn][n]2c(c4ccccc4c2=N1)=NC1=NC(=N3)c2ccccc21 [N1Zn]
- ΦΔ, quantum yield of singlet oxygen production [1]: 0.67
- ΦF, fluorescence quantum yield [2]: 0.24
- EC50 [3]: 16 ± 3 nM
- EC50 [5]: 6 ± 1 nM
- EC50 [6]: 17 ± 5 nM
- ε, extinction coefficient [7]: 82 550 M^–1cm^–1
- λA, absorption maximum in the Q-band [7]: 689 nm
- λF, fluorescence emission maximum [7]: 702 nm
- Interaction with BSA: disaggregation/monomerization and changes in absorption and fluorescence emission spectra [9]: monomerization was apparent even from the absorption spectra
- τF1, fluorescence lifetime (relative amplitude in brackets) [8]: 2.41 ns

From PMC12951568, “Identifying Structural Factors Governing the Photodynamic Activity of Phthalocyanines” (Journal of Medicinal Chemistry, 2026)
